In patent US20220339143A1, “TAK-925 FOR USE IN TREATING NARCOLEPSY” (Takeda Pharmaceutical Company Limited, priority 2019, published 2022):
Where two headings read alike, the source gives them in different places.

Assay: Single dose PK in healthy subjects (Cohorts 1, 2, S1 and S2), plasma
Type: in vivo, human
Details: human, plasma, intravenous
Protocol: This study investigates (i) the safety and tolerability of Compound A (methyl (2R,3S)-3-((methylsulfonyl)amino)-2-(((cis-4-phenylcyclohexyl)oxy)methyl)piperidine-1-carboxylate) when a single dose given as a 9 hour continuous IV infusion is administered to healthy adults, healthy elderly subjects and patients with narcolepsy type 1 (NT1); (ii) the pharmacokinetics of Compound A when a single dose given as a 9 hour continuous IV infusion is administered to healthy adults, healthy elderly subjects and patients with narcolepsy type 1; and (iii) the pharmacodynamics (PD) effects of Compound A, primarily by evaluation of the sleep latency on MWT when a single dose given as a 9 hour continuous IV infusion is administered to patients with narcolepsy type 1.
Pharmacokinetics: Concentrations of Compound A in plasma, and CSF, and pharmacokinetics parameters.
On average, the time to reach the plateau appeared to be approximately 3 to 4 hours after the start of infusion. […] After switching off the IV infusion, Compound A plasma concentrations declined rapidly and in a biphasic manner with a mean terminal disposition phase t1/2z ranging approximately from 3.4 to 5.1 hours across all doses. […] Table 5 provides a summary of plasma concentrations of Compound A after a single IV infusion in healthy subjects. Table 6 provides a summary of pharmacokinetic parameters of Compound A after a single IV infusion in healthy subjects.

[1] = 14 mg, read-out: Plasma concentration, Maximum
[2] = 14 mg, read-out: Plasma concentration, Mean
[3] = 14 mg, read-out: Plasma concentration, Median
[4] = 14 mg, read-out: Plasma concentration, Minimum
[5] = 14 mg, read-out: Plasma concentration, Q1
[6] = 14 mg, read-out: Plasma concentration, Q3
[7] = 28 mg, read-out: Plasma concentration, Maximum
[8] = 28 mg, read-out: Plasma concentration, Mean
[9] = 28 mg, read-out: Plasma concentration, Median
[10] = 28 mg, read-out: Plasma concentration, Minimum
[11] = 28 mg, read-out: Plasma concentration, Q1
[12] = 28 mg, read-out: Plasma concentration, Q3

`COC(=O)N1CCC[C@H](NS(C)(=O)=O)[C@@H]1CO[C@H]1CC[C@@H](c2ccccc2)CC1` [Compound A, methyl (2R,3S)-3-((methylsulfonyl)amino)-2-(((cis-4-phenylcyclohexyl)oxy)methyl)piperidine-1-carboxylate] showed a concentration at 3 hr (7 mg, 3 hr, read-out: Plasma concentration, Q1) of 15.1 ng/mL, a concentration at 3 h (7 mg, 3 hr, read-out: Plasma concentration, Q3) of 18.8 ng/mL and a concentration at 4 h (7 mg, 4 hr, read-out: Plasma concentration, Maximum) of 20.6 ng/mL. It also gave a concentration at 4 h (7 mg, 4 hr, read-out: Plasma concentration, Mean) of 15.9 ng/mL, a concentration at 4 h (7 mg, 4 hr, read-out: Plasma concentration, Median) of 15.5 ng/mL and a concentration at 4 h (7 mg, 4 hr, read-out: Plasma concentration, Minimum) of 11.1 ng/mL. The concentration at 4 hr (7 mg, 4 hr, read-out: Plasma concentration, Q1) was 15.2 ng/mL, the concentration at 4 h (7 mg, 4 hr, read-out: Plasma concentration, Q3) was 17.6 ng/mL and the concentration at 6 h (7 mg, 6 hr, read-out: Plasma concentration, Maximum) was 15.9 ng/mL. It also gave a concentration at 6 h (7 mg, 6 hr, read-out: Plasma concentration, Mean) of 12.2 ng/mL, a concentration at 6 h (7 mg, 6 hr, read-out: Plasma concentration, Median) of 12.4 ng/mL and a concentration at 6 h (7 mg, 6 hr, read-out: Plasma concentration, Minimum) of 8.82 ng/mL. It also gave a concentration at 6 hr (7 mg, 6 hr, read-out: Plasma concentration, Q1) of 11.4 ng/mL, a concentration at 6 h (7 mg, 6 hr, read-out: Plasma concentration, Q3) of 12.5 ng/mL and a concentration at 8 h (7 mg, 8 hr, read-out: Plasma concentration, Maximum) of 16.1 ng/mL. It also gave a concentration at 8 h (7 mg, 8 hr, read-out: Plasma concentration, Mean) of 13 ng/mL, a concentration at 8 h (7 mg, 8 hr, read-out: Plasma concentration, Median) of 13.1 ng/mL and a concentration at 8 h (7 mg, 8 hr, read-out: Plasma concentration, Minimum) of 9.5 ng/mL. It also gave a concentration at 8 hr (7 mg, 8 hr, read-out: Plasma concentration, Q1) of 12.8 ng/mL, a concentration at 8 h (7 mg, 8 hr, read-out: Plasma concentration, Q3) of 13.4 ng/mL and a concentration at 9 h (7 mg, 9 hr, read-out: Plasma concentration, Maximum) of 15.2 ng/mL. For the same compound, the concentration at 9 h (7 mg, 9 hr, read-out: Plasma concentration, Mean) was 13.5 ng/mL, the concentration at 9 h (7 mg, 9 hr, read-out: Plasma concentration, Median) was 13.9 ng/mL and the concentration at 9 h (7 mg, 9 hr, read-out: Plasma concentration, Minimum) was 10.2 ng/mL. The concentration at 9 hr (7 mg, 9 hr, read-out: Plasma concentration, Q1) was 13.2 ng/mL, the concentration at 9 h (7 mg, 9 hr, read-out: Plasma concentration, Q3) was 15 ng/mL and the concentration at 0.5 h [1] was 27.2 ng/mL. For the same compound, the concentration at 0.5 h [2] was 22.5 ng/mL, the concentration at 0.5 h [3] was 22.1 ng/mL and the concentration at 0.5 h [4] was 18 ng/mL. The concentration at 0.5 h [5] was 21.7 ng/mL, the concentration at 0.5 h [6] was 23.9 ng/mL and the concentration at 1 h [1] was 32.1 ng/mL. The concentration at 1 h [2] was 26.6 ng/mL, the concentration at 1 h [3] was 26.9 ng/mL and the concentration at 1 h [4] was 21.8 ng/mL. It also gave a concentration at 1 h [5] of 22.6 ng/mL, a concentration at 1 h [6] of 29.7 ng/mL and a concentration at 1.5 h [1] of 36.1 ng/mL. The concentration at 1.5 h [2] was 30.4 ng/mL, the concentration at 1.5 h [3] was 29 ng/mL and the concentration at 1.5 h [4] was 27.4 ng/mL. It also gave a concentration at 1.5 h [5] of 27.6 ng/mL, a concentration at 1.5 h [6] of 33.6 ng/mL and a concentration at 2 h (14 mg, 2 hr, read-out: Plasma concentration, Maximum) of 37.8 ng/mL. The concentration at 2 h (14 mg, 2 hr, read-out: Plasma concentration, Mean) was 32.9 ng/mL, the concentration at 2 h (14 mg, 2 hr, read-out: Plasma concentration, Median) was 32 ng/mL and the concentration at 2 h (14 mg, 2 hr, read-out: Plasma concentration, Minimum) was 29.6 ng/mL. The concentration at 2 h (14 mg, 2 hr, read-out: Plasma concentration, Q1) was 30 ng/mL, the concentration at 2 h (14 mg, 2 hr, read-out: Plasma concentration, Q3) was 35.8 ng/mL and the concentration at 3 h (14 mg, 3 hr, read-out: Plasma concentration, Maximum) was 43.5 ng/mL. The concentration at 3 h (14 mg, 3 hr, read-out: Plasma concentration, Mean) was 35.8 ng/mL, the concentration at 3 h (14 mg, 3 hr, read-out: Plasma concentration, Median) was 34.3 ng/mL and the concentration at 3 h (14 mg, 3 hr, read-out: Plasma concentration, Minimum) was 31.8 ng/mL. The concentration at 3 h (14 mg, 3 hr, read-out: Plasma concentration, Q1) was 32.1 ng/mL, the concentration at 3 h (14 mg, 3 hr, read-out: Plasma concentration, Q3) was 39 ng/mL and the concentration at 4 h (14 mg, 4 hr, read-out: Plasma concentration, Maximum) was 40.4 ng/mL. For the same compound, the concentration at 4 h (14 mg, 4 hr, read-out: Plasma concentration, Mean) was 36.4 ng/mL, the concentration at 4 h (14 mg, 4 hr, read-out: Plasma concentration, Median) was 37 ng/mL and the concentration at 4 h (14 mg, 4 hr, read-out: Plasma concentration, Minimum) was 31 ng/mL. For the same compound, the concentration at 4 h (14 mg, 4 hr, read-out: Plasma concentration, Q1) was 33 ng/mL, the concentration at 4 h (14 mg, 4 hr, read-out: Plasma concentration, Q3) was 40 ng/mL and the concentration at 6 h (14 mg, 6 hr, read-out: Plasma concentration, Maximum) was 35.2 ng/mL. It also gave a concentration at 6 h (14 mg, 6 hr, read-out: Plasma concentration, Mean) of 29.3 ng/mL, a concentration at 6 h (14 mg, 6 hr, read-out: Plasma concentration, Median) of 29.7 ng/mL and a concentration at 6 h (14 mg, 6 hr, read-out: Plasma concentration, Minimum) of 23.1 ng/mL. For the same compound, the concentration at 6 h (14 mg, 6 hr, read-out: Plasma concentration, Q1) was 23.9 ng/mL, the concentration at 6 h (14 mg, 6 hr, read-out: Plasma concentration, Q3) was 34.4 ng/mL and the concentration at 8 h (14 mg, 8 hr, read-out: Plasma concentration, Maximum) was 34.4 ng/mL. It also gave a concentration at 8 h (14 mg, 8 hr, read-out: Plasma concentration, Mean) of 28.9 ng/mL, a concentration at 8 h (14 mg, 8 hr, read-out: Plasma concentration, Median) of 29.9 ng/mL and a concentration at 8 h (14 mg, 8 hr, read-out: Plasma concentration, Minimum) of 22.6 ng/mL. It also gave a concentration at 8 h (14 mg, 8 hr, read-out: Plasma concentration, Q1) of 24.6 ng/mL, a concentration at 8 h (14 mg, 8 hr, read-out: Plasma concentration, Q3) of 32.3 ng/mL and a concentration at 9 h (14 mg, 9 hr, read-out: Plasma concentration, Maximum) of 34.2 ng/mL. The concentration at 9 h (14 mg, 9 hr, read-out: Plasma concentration, Mean) was 30.1 ng/mL, the concentration at 9 h (14 mg, 9 hr, read-out: Plasma concentration, Median) was 30.8 ng/mL and the concentration at 9 h (14 mg, 9 hr, read-out: Plasma concentration, Minimum) was 22.8 ng/mL. For the same compound, the concentration at 9 h (14 mg, 9 hr, read-out: Plasma concentration, Q1) was 28.4 ng/mL, the concentration at 9 h (14 mg, 9 hr, read-out: Plasma concentration, Q3) was 33.5 ng/mL and the concentration at 0.5 h [7] was 48.7 ng/mL. For the same compound, the concentration at 0.5 hr [8] was 34.4 ng/mL, the concentration at 0.5 hr [9] was 32 ng/mL and the concentration at 0.5 hr [10] was 19.1 ng/mL. For the same compound, the concentration at 0.5 hr [11] was 29.6 ng/mL, the concentration at 0.5 h [12] was 42.6 ng/mL and the concentration at 1 h [7] was 51.8 ng/mL. It also gave a concentration at 1 hr [8] of 37.9 ng/mL, a concentration at 1 hr [9] of 36.6 ng/mL and a concentration at 1 hr [10] of 21.7 ng/mL. For the same compound, the concentration at 1 hr [11] was 36.5 ng/mL, the concentration at 1 h [12] was 42.8 ng/mL and the concentration at 1.5 h [7] was 55.9 ng/mL. The concentration at 1.5 hr [8] was 44.9 ng/mL, the concentration at 1.5 h [9] was 47.1 ng/mL and the concentration at 1.5 hr [10] was 27.2 ng/mL. The concentration at 1.5 hr [11] was 44.4 ng/mL, the concentration at 1.5 h [12] was 49.9 ng/mL and the concentration at 2 h (28 mg, 2 hr, read-out: Plasma concentration, Maximum) was 58.4 ng/mL. It also gave a concentration at 2 hr (28 mg, 2 hr, read-out: Plasma concentration, Mean) of 50.1 ng/mL and a concentration at 2 h (28 mg, 2 hr, read-out: Plasma concentration, Median) of 54.9 ng/mL.
